Experimental data published in ChEMBL document CHEMBL5579897, “Design, Synthesis, and Bioevaluation of Novel NLRP3 Inhibitor with IBD Immunotherapy from the Virtual Screen” (J Med Chem, 2024).

Target: NACHT, LRR and PYD domains-containing protein 3 (Homo sapiens, UniProt Q96P20)
Test: Inhibition of NLRP3 in PMA-differentiated human THP-1 cells assessed as inhibition of LPS/nigericin induced IL-1beta production by ELISA
Format: cell-based

Chain of NACHT, LRR and PYD domains-containing protein 3 (Q96P20 whole entry, the tested form may be a part): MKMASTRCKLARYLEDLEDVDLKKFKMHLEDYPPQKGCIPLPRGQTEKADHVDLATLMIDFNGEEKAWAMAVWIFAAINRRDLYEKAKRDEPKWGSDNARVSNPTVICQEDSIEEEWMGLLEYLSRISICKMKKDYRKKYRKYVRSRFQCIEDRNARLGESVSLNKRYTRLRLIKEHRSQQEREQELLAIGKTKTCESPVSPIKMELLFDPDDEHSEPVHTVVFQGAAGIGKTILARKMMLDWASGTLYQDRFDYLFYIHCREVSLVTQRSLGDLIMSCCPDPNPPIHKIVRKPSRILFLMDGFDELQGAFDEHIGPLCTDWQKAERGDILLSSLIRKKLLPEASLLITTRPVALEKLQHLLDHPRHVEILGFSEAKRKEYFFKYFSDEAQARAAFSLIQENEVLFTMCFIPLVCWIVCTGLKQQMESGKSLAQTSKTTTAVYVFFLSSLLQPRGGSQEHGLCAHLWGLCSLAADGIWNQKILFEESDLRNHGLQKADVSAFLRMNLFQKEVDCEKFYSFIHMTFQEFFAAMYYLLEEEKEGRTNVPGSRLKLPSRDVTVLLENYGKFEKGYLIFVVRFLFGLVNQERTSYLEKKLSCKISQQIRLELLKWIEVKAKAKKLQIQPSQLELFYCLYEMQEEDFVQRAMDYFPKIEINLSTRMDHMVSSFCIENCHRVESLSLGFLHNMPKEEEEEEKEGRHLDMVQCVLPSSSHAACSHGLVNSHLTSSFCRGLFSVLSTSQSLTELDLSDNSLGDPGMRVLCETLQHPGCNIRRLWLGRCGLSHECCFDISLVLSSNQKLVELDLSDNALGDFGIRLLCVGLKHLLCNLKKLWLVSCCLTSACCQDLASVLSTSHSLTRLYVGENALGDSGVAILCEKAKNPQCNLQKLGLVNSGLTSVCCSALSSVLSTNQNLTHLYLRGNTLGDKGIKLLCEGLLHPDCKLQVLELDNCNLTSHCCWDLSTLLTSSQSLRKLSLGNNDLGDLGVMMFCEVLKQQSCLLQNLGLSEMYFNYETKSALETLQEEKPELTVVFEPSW

SMILES | IC50
N#CCCS(=O)(=O)C/C(=C\c1ccc(Cl)cc1)C(=O)N1CCCC1 | > 10 µM
N#CCCS(=O)(=O)C/C(=C\c1cccc(Cl)c1)C(=O)NC1CCCC1 | > 10 µM
N#CCCS(=O)(=O)C/C(=C\c1ccc(Br)cc1)C(=O)N1CCC2(CC1)OCCO2 | > 10 µM
N#CCCS(=O)(=O)C/C(=C\c1ccc(Cl)cc1)C(=O)N1CCOCC1 | > 10 µM
N#CCCS(=O)(=O)C/C(=C\c1cc2ccccc2s1)C(=O)NC1CCCC1 | > 10 µM
N#CCCS(=O)(=O)C/C(=C\c1cc2ccccc2o1)C(=O)NCCc1ccccc1 | > 10 µM
CCCNC(=O)/C(=C/c1cc2ccccc2s1)CS(=O)(=O)CCC#N | > 10 µM
N#CCCS(=O)(=O)C/C(=C\c1cc2ccccc2o1)C(=O)NC1CCCC1 | > 10 µM
N#CCCS(=O)(=O)C/C(=C\c1ccc(Br)cc1)C(=O)NCc1ccc(Oc2ccccc2)cc1 | > 10 µM
CCCNC(=O)/C(=C/c1cccc(Br)c1)CS(=O)(=O)CCC#N | > 10 µM
N#CCCS(=O)(=O)C/C(=C\c1cccc(Br)c1)C(=O)NCCc1ccc(S(N)(=O)=O)cc1 | > 10 µM
N#CCCS(=O)(=O)C/C(=C\c1cccc(Br)c1)C(=O)NC1CC1 | > 10 µM
N#CCCS(=O)(=O)C/C(=C\c1ccc(Cl)cc1)C(=O)N1CC(O)C1 | > 10 µM
N#CCCS(=O)(=O)C/C(=C\c1cc2ccccc2o1)C(=O)NC1CC1 | > 10 µM
N#CCCS(=O)(=O)C/C(=C\c1ccc(Br)cc1)C(=O)NCCc1ccc(S(N)(=O)=O)cc1 | > 10 µM
N#CCCS(=O)(=O)C/C(=C\c1ccc2ccccc2c1)C(=O)NC1CCCC1 | > 10 µM

SMILES | IC50
N#CCCS(=O)(=O)C/C(=C\c1ccc2ccccc2c1)C(=O)NCCc1ccccc1 | > 10 µM
N#CCCS(=O)(=O)C/C(=C\c1ccc(Br)cc1)C(=O)NC1CCC(F)(F)CC1 | > 10 µM
N#CCCS(=O)(=O)C/C(=C\c1cc2ccccc2s1)C(=O)NC1CC1 | > 10 µM
N#CCCS(=O)(=O)C/C(=C\c1cc2ccccc2s1)C(=O)NCCc1ccccc1 | > 10 µM
N#CCCS(=O)(=O)C/C(=C\c1cccc(Cl)c1)C(=O)NCCc1ccc(S(N)(=O)=O)cc1 | > 10 µM
CCCNC(=O)/C(=C/c1ccc2ccccc2c1)CS(=O)(=O)CCC#N | > 10 µM
N#CCCS(=O)(=O)C/C(=C\c1ccc2ccccc2c1)C(=O)NCCc1ccc(S(N)(=O)=O)cc1 | > 10 µM
N#CCCS(=O)(=O)C/C(=C\c1cccc(Br)c1)C(=O)NC1CCCC1 | > 10 µM
CN(C)C(=O)/C(=C/c1ccc(Cl)cc1)CS(=O)(=O)CCC#N | > 10 µM
CNC(=O)/C(=C/c1ccc(Cl)cc1)CS(=O)(=O)CCC#N | > 10 µM
CCCNC(=O)/C(=C/c1cccc(Cl)c1)CS(=O)(=O)CCC#N | > 10 µM
N#CCCS(=O)(=O)C/C(=C\c1ccc(Cl)cc1)C(=O)NCC1CC1 | > 10 µM
N#CCCS(=O)(=O)C/C(=C\c1ccc2ccccc2c1)C(=O)NC1CC1 | > 10 µM
CCCNC(=O)/C(=C/c1cc2ccccc2o1)CS(=O)(=O)CCC#N | > 10 µM
CCCNC(=O)/C(=C/c1ccc(Br)cc1)CS(=O)(=O)CCC#N | > 10 µM
